The values that follow come from US4640910A (Abbott Laboratories, priority 1985, dated 1987).

Converted amounts (≈) assume the structure as drawn. Like-named read-outs stand apart in the source and are kept apart here.

For series [1], the system named is Strep. pyogenes. Kind of series: Extended mouse protection study. The settings on record: oral.
Series [2] concerns Staph. aureus. Kind of series: Extended mouse protection study. The note with it: oral.
Series [3] has as its system Strep. pneumoniae. Put plainly: Extended mouse protection study. The settings on record: oral.
The subject of series [4] is indicated test organism. Kind of series: Acute mouse protection test. The class given is in vivo, female, Swiss albino mice. The settings on record: 1 and 5 hours post-infection, 7 days, * = highest level tested.
Series [5] can be described thus: Stability and release of drug from prodrug in aqueous buffers pH 2 to 12 (dissolution apparatus, HPLC). In kind it is physicochemical. As for the experimental part:
Samples of 2'-trimethylsilylerythromycin A and 2'-trimethylsilyl-6-O-methylerythromycin A were dissolved in 10-50 ml dimethyl sulfoxide or acetonitrile to give a solution containing 15-75 mg/ml. An aliquot containing 75 mg of prodrug was added to aqueous buffers ranging in pH from 2 to 12 to give a final volume equal to 500 ml. The buffered mixtures were stirred at 37° C. for at least 90 minutes. A standard dissolution test apparatus (Vanderkamp 600, Van-Kel Industries, Inc., 36 Meridian Road, Edisoin, N.J. 08820) was used to provide temperature and stirring rate control.
Aliquots were taken at 15, 30, 45, 60, 90, 120, 180, 240 and 360 minutes for analysis. Each sample was mixed with an internal standard, adjusted rapidly to pH 9 with 1M tricine buffer and extracted immediately with ethyl acetate. The organic extracts were evaporated and redissolved in a solution of 3% tetrahydrofuran in heptane. Samples of these solutions were injected using an autosampler (WISP 71)B, Waters Chromatography, Division of Millipore, 34 Maple Street, Milford, Mass. 01757). The prodrugs and drugs were separated by high performance liquid chromatography, detected at 225 nm using a spectrophotometer (Spectroflow 773 Absorbence Detector, Kratos Analytical Instruments), and were quantified with a digital integrator.

In series [6] the test system is Ps. aeruginosa K799/WT. Kind of series: Antimicrobial spectrum, agar dilution MIC. In kind it is cell-based. The settings on record: Pseudomonas aeruginosa, BHI agar, 35°-37° C., 20-24 hours.
Series [7] relates to Micrococcus luteus 9341. Kind of series: Antimicrobial spectrum, agar dilution MIC. The settings on record: Micrococcus luteus, 9341. In kind it is cell-based. On the technique in general: Agar dilution tests growth on a series of plates holding different concentrations.
The test system of series [8] is Ps. aeruginosa BMH10. Put plainly: Antimicrobial spectrum, agar dilution MIC. In kind it is cell-based. The settings on record: Pseudomonas aeruginosa; Ps. aeruginosa BMH10; BHI agar, 35°-37° C., 20-24 hours; read-out: MIC.
Series [9] deals with Providencia stuartii CMX 640. Kind of series: Antimicrobial spectrum, agar dilution MIC. The settings on record: CMX640; Providencia stuartii CMX 640; BHI agar, 35°-37° C., 20-24 hours; read-out: MIC. In kind it is cell-based.
Series [10] relates to Enterobact. aerogenes ATCC 13048. Kind of series: Antimicrobial spectrum, agar dilution MIC. In kind it is cell-based. The settings on record: Enterobact. aerogenes ATCC 13048; BHI agar, 35°-37° C., 20-24 hours; read-out: MIC.
Series [11] concerns Lactobacillus casei ATCC 7469. Kind of series: Antimicrobial spectrum, agar dilution MIC. The class given is cell-based. The note with it: Lacticaseibacillus casei, ATCC7469.
Series [12] deals with Staph. aureus A 5177. Kind of series: Antimicrobial spectrum, agar dilution MIC. The class given is cell-based. The note with it: Staphylococcus aureus, A5177; Staph. aureus A 5177; BHI agar, 35°-37° C., 20-24 hours; read-out: MIC.
Series [13] deals with Ps. aeruginosa A5007. Kind of series: Antimicrobial spectrum, agar dilution MIC. The class given is cell-based. The settings on record: Pseudomonas aeruginosa, BHI agar, 35°-37° C., 20-24 hours.
The test system of series [14] is Strep. pyogenes 930. Put plainly: Antimicrobial spectrum, agar dilution MIC. The note with it: Streptococcus pyogenes, BHI agar, 35°-37° C., 20-24 hours. In kind it is cell-based.
Series [15] relates to Ps. cepacia 2961. Kind of series: Antimicrobial spectrum, agar dilution MIC. The settings on record: Burkholderia cepacia; Ps. cepacia 2961; BHI agar, 35°-37° C., 20-24 hours; read-out: MIC. The class given is cell-based.
Where [16] appears, read: carboxymethylcellulose with milk (reduces gastric acid secretion).
[17] abbreviates: phosphate buffer solution with milk (reduces gastric acid secretion).
Setting [18] is: Mus musculus, po, 168 h, oral administration.
The mark [19] stands for this setting: Mus musculus, sc, 168 h, subcutaneous administration.
Where [20] appears, read: Mus musculus, po, 168 h, oral administration, read-out: ED50.
Where [21] appears, read: Mus musculus, sc, 168 h, subcutaneous administration, read-out: ED50.

For orientation: ED50 means the midpoint of the dose-response relation. In the case of `CC[C@H]1OC(=O)[C@H](C)[C@@H](O[C@H]2C[C@@](C)(OC)[C@@H](O)[C@H](C)O2)[C@H](C)[C@@H](O[C@@H]2O[C@H](C)C[C@H](N(C)C)[C@H]2O)[C@](C)(OC)C[C@@H](C)C(=O)[C@H](C)[C@@H](O)[C@]1(C)O` [6-O-methyl erythromycin A], the ED50 in [1] (setting [16]) is 5.3 mg/kg/day; in [1] (phosphate buffer solution), 5.9 mg/kg/day; in series [1] (setting [17]) it was 11.1 mg/kg/day; in series [2] (carboxymethylcellulose), 25.0 mg/kg/day; in [2] (phosphate buffer solution), 27.2 mg/kg/day; in series [3] (carboxymethylcellulose), 2.4 mg/kg/day. The results for the ED50 in [3] (setting [16]), in series [3] (phosphate buffer solution) and in [3] (setting [17]) were 2.2 mg/kg/day, 1.6 mg/kg/day and 1.6 mg/kg/day, respectively.

`CC[C@H]1OC(=O)[C@H](C)[C@@H](O[C@H]2C[C@@](C)(OC)[C@@H](O)[C@H](C)O2)[C@H](C)[C@@H](O[C@@H]2O[C@H](C)C[C@H](N(C)C)[C@H]2O[Si](C)(C)C)[C@](C)(O)C[C@@H](C)C(=NO[Si](C)(C)C)[C@H](C)[C@@H](O)[C@]1(C)O` [Example 11, 2',9-bis(O-trimethylsilyl)-Erythromycin A-9-oxime]: the ED50 in series [4] (setting [18]) was 150 mg/kg; in [4] (setting [19]) it was 40 mg/kg.

Regarding `CC[C@H]1OC(=O)[C@H](C)[C@@H](O[C@H]2C[C@@](C)(OC)[C@@H](O[Si](C)(C)C)[C@H](C)O2)[C@H](C)[C@@H](O[C@@H]2O[C@H](C)C[C@H](N(C)C)[C@H]2OC(C)=O)[C@](C)(O)C[C@@H](C)C(=O)[C@H](C)[C@@H](O[Si](C)(C)C)[C@]1(C)O` [Example 12, 2'-Acetyl-4",11-bis (-O-TMS)-Erythromycin A], the values for the ED50 in series [4] (setting [18]) and in [4] (setting [19]) were 250 mg/kg and 40 mg/kg, respectively.

Take `CC[C@H]1OC(=O)[C@H](C)[C@@H](O[C@H]2C[C@@](C)(OC)[C@@H](O[Si](C)(C)C)[C@H](C)O2)[C@H](C)[C@@H](O[C@@H]2O[C@H](C)C[C@H](N(C)C)[C@H]2O)[C@](C)(OC)C[C@@H](C)C(=O)[C@H](C)[C@@H](O[Si](C)(C)C)[C@]1(C)O` [Example 10, 4"-11-bis(O-TMS)-6-O-methyl erythromycin A]: the values for the ED50 in [4] (setting [20]) and in [4] (setting [19]) were 51.8 mg/kg and 40 mg/kg, respectively.

For the compound `CC[C@H]1OC(=O)[C@H](C)[C@@H](O[C@H]2C[C@@](C)(OC)[C@@H](O)[C@H](C)O2)[C@H](C)[C@@H](O[C@@H]2O[C@H](C)C[C@H](N(C)C)[C@H]2O[Si](C)(C)C)[C@](C)(O)C[C@@H](C)C(=O)[C@H](C)[C@@H](O)[C@]1(C)O` [Example 2, 2'-O-Trimethylsilyl Erythromycin A], the degradation entry in series [5] (pH 2 and 4, 37° C.) was “degraded to anhydroerythromycin A”. Further, in series [5] (pH 6, 37° C.), the anhydroerythromycin formed entry is listed as “significant amounts” and the “erythromycin A detected” value is recorded as “A very small amount”. Further, in series [5] (pH 8, 10 or 12, 37° C.), the erythromycin formed entry is on record as “No erythromycin was formed”.

As usually defined, the MIC is the lowest concentration that inhibits growth of the organism. Turning to `CC[C@H]1OC(=O)[C@H](C)[C@@H](O[C@H]2C[C@@](C)(OC)[C@@H](O)[C@H](C)O2)[C@H](C)[C@@H](O[C@@H]2O[C@H](C)C[C@H](N(C)C)[C@H]2O)[C@](C)(O)C[C@@H](C)C(=O)[C@H](C)[C@@H](O)[C@]1(C)O` [Erythromycin A, reference compound], the MIC in series [6] was 100 µg/mL (≈ 136 µM); in series [7] it was 0.02 µg/mL (≈ 0.0273 µM); in series [8] it was 100 µg/mL (≈ 136 µM); in [9], 100 µg/mL (≈ 136 µM); in [10] it was 100 µg/mL (≈ 136 µM); in series [11], 0.05 µg/mL (≈ 0.0681 µM). Further, the MIC in series [12] turned out to be 0.78 µg/mL (≈ 1.06 µM); in series [13], 100 µg/mL (≈ 136 µM); in [14], 100 µg/mL (≈ 136 µM); in [15] it was 100 µg/mL (≈ 136 µM). Also, the ED50 in series [1] (phosphate buffer solution) stood at 37.2 mg/kg/day; in [2] (carboxymethylcellulose), 86.0 mg/kg/day; in series [2] (phosphate buffer solution) it was 75.7 mg/kg/day; in series [4] (setting [20]), 75.7 mg/kg; in [4] (setting [21]), 10.9 mg/kg; in series [4] (oral administration, 10080 min), 48.8 mg/kg/day.

With `CC[C@H]1OC(=O)[C@H](C)[C@@H](O[C@H]2C[C@@](C)(OC)[C@@H](O[Si](C)(C)C)[C@H](C)O2)[C@H](C)[C@@H](O[C@@H]2O[C@H](C)C[C@H](N(C)C)[C@H]2O)[C@](C)(O)C[C@@H](C)C(=O)[C@H](C)[C@@H](O)[C@]1(C)O` [Example 8, 4"-O-trimethylsilyl erythromycin A], the ED50 in [4] (setting [20]) is 99.7 mg/kg; in series [4] (setting [21]) it was 16 mg/kg; in [4] (oral administration, listed as 4"-O--TMS Ery A, 10080 min), 61.5 mg/kg/day.
